What all share (assay type): in vivo, human
The subject of one assay is aphtha. Nature of the assay: Case reports: rinse with quinoline derivative solution followed by chlorhexidine rinse in patients with aphthae. The text has this: (§1) Hydroxychloroquine (HCQ) was obtained from Sanofi-Syntelabo, Inc. New York USA, quinine (Q) and quinidine sulfate were obtained from Rakah, Holon, Israel. The compounds were mixed with tap water. Chlorhexidine was obtained from LACER S.A., Barcelona, Spain.
A person, generally in good health, presented a most painful, distressing major aphtha of approximately 1 cm diameter on the ventro-lateral tongue. They had suffered the presence of such lesions for several years (recurrences of 6 to 8 episodes per year). The current lesion had been present for about one week. During examination 2 lymph nodes were palpated in the floor of mouth, probably due to a secondary infection. They started to apply a rinse with 3.72 mg/cc HCQ solution (for 3 to 5 minutes) followed by a rinse with 0.12% chlorhexidine alcohol free solution (for about 1 minute), 3 times a day. Two days later, the patient was totally free of pain and the size of the aphtha diminished to about 7 mm diameter.
A person, presented a painful minor aphtha on the ventro-lateral part of the tongue. They reported its appearance about 1 week ago. In the past, frequent episodes of minor aphthae had occurred every 2 months. They started to rinse with 10 ml of quinine sulfate Solution 3 mg/cc (for 3 to 5 minutes) followed by a rinse with 0.12% chlorhexidine alcohol free solution (for about 1 minute), 3 times a day.

A further assay deals with aphtha (canker sores). Nature of the assay: Case reports: mouth rinses with a quinoline derivative solution in patients with aphthae.
Description: as §1
A person, generally in good health, reported the presence of canker sores for several years (periodic recurrences of 3 to 4 episodes per year). […] The patient was seen five days after the appearance of the painful aphtha. They started oral rinses with 10 ml of hydroxychloroquine (HCQ) solution, 3.7 mg/ml, three times a day, each rinse for 3 to 5 min. […] They continued to rinse for about a week. No additional aphthous lesions appeared during 8 weeks of follow-up.
A person, in otherwise general good health, came with two painful major aphthae, one of 12 mm diameter on the left side of the lower lip mucosa and the second on the right latero-ventral side of the tongue, about 8 mm diameter. They reported the presence of recurrent aphthous lesions since they were […]. During the last year, they continuously suffered from recurrent episodes of major aphthae, with virtually no aphtae-free intervals. Each episode of aphthae usually lasted for 3 to 6 weeks. They started oral rinses with 10 ml of HCQ solution, 3.7 mg/ml, three times a day, each rinse for 3 to 5 min. […] Concomitantly, 2 new lesions of minor aphthae, 3 mm in diameter each, were seen, one on the left side of the upper lip mucosa and the other on the ventro-anterior side of the tongue. […] In total, they rinsed with the HCQ solution for 20 days.
A child, in otherwise general good health, reported the presence of recurrent aphthous lesions of different sizes for the last 2 years. The last episode had been about 3 months before examination. The lesions had disappeared within 2 weeks after using different conventional treatments. At clinical examination, one aphtha of about 3 mm diameter was found on the lower lip mucosa and another one about 6 mm diameter was found on the upper lip mucosa. Both lesions were painful. They started rinsing with 10 ml of HCQ solution, 2.5 mg/ml, three times a day, each rinse for 3 to 5 min. […] They reported to be free of any pain already after 24 hours from the start of rinsing. […], therefore, was able to eat everything. The patient was advised to continue rinsing with 10 ml of hydroxychloroquine (HCQ) solution, 3.7 mg/ml, three times a day, each rinse for 3 to 5 min for 7 additional days. […] They still continued with the rinses for 5 additional days, as recommended.
A person reported suffering from recurrent episodes of canker sores for many years, with 2 to 3 episodes per year. The last episode had occurred about 6 months before examination. They were diagnosed with diabetes mellitus, so that use of steroidal modalities for treatment of their aphthous lesions was contraindicated. […] They started rinsing with 10 ml of HCQ solution, 1.2 mg/ml, three times a day, each rinse for 3 to 5 min. After 24 hours from start of rinses they were free of any pain and was able to eat everything. […] They remained aphthae-free for 7 months.
A person, generally in good health, reports the presence of canker sores since childhood with about 8 to 10 recurrences per year. At clinical examination a minor painful aphtha was present on the mucosa of the lower lip. The ulcer was about 4-5 mm in diameter and was present for 8 days. […] They started to rinse with 10 ml of hydroxychloroquine (HCQ) solution, 1.2 mg/ml, three times a day, each rinse for 3 to 5 min.
A person presented a painful minor aphtha of about 3 mm in diameter in the right vestibulum of the lower jaw adjacent to the first molar. They reported the presence of pain and inconvenience for 2 days. In the past, they had experienced recurrences of such lesions every 3 to 4 months. They started to rinse with 10 ml of 0.085 mg/ml quinine solution for 3 to 5 minutes, about 5 to 7 times a day. […]

Assay [1] concerns oral aphthous stomatitis and oral mucositis. The experiment in a line: General statements on treating oral aphthous stomatitis and oral mucositis in patients. The text has this: In experiments carried out with particular preferred compounds of the invention, the pain caused by ulcerative lesions disappeared often within hours, and the ulcers and other symptoms disappeared usually within days. For example, patients with life-long recurrent aphthae problems achieved quick relief of pains caused by aphthae ulcers after rinsing their mouth with aqueous solutions comprising said compounds. The effect is often enhanced when said quinoline derivative is used together with an antiseptic.
Quinine at levels up to 83 ppm is approved by FDA for use in beverages as a flavoring agent.
In other preferred embodiment of this invention, oral mucositis is treated by a quinine (Q) salt in solution or suspension, which is used several times a day for rinsing mouth without swallowing, followed by rinsing with chlorhexidine solution. The concentration of Q is preferably about 0.083 mg/ml, and chlorhexidine solution has preferably a concentration from 0.05% to 0.2%. The rinsing with each of the two components is preferably performed 3-5 times a day. Said Q solution may comprise Q dihydrochloride, Q hydrochloride, Q sulfate, and other Q salts. Said Q suspension may, for example, comprise Q sulfate. Stereoisomers of quinine and their salts, such as quinidine sulfate, have been also found active.

The subject of another assay is erosive lichen planus. Nature of the assay: Case report: rinse and swallow of quinine solution in a patient with erosive lichen planus.
Description: as §1
A person presented diffuse erosions/ulcerations of the buccal, labial and lingual mucosae that were present for at least 6 months. They complained of pain and difficulty to eat and speak. The erosive/ulcerative lesions were clinically specific for erosive lichen planus. They started to rinse (for 5 to 10 min) and swallow about 10- 20 ml of 0.085 mg/ml quinine solution, 5 to 7 times a day. […] They were able to maintain a stable asymptomatic condition of their lichen planus by means of quinine solution during about 1 year follow-up period.

The mark [2] stands for this setting: Example 2: HCQ solution 3.7 mg/ml.
Where [3] appears, read: Example 2: HCQ solution 3.7 mg/ml, three times a day.
The mark [4] stands for this setting: Example 3: HCQ solution 2.5 mg/ml, three times a day.
Setting [5] is: Example 7: 0.085 mg/ml quinine solution, rinse and swallow.

Where a name gives a salt, the structure may show the parent alone.

`CCN(CCO)CCCC(C)Nc1ccnc2cc(Cl)ccc12` (centres unmarked) [HCQ, Hydroxychloroquine]: in the assay on aphtha (Example 8: 3.72 mg/cc HCQ rinse followed by 0.12% chlorhexidine rinse, 3 times a day), the “diameter of the aphtha two days later (initially approximately 1 cm)” value is reported as “about 7 mm”. The “state of the aphtha after 2 additional days of treatment” value in the assay with aphtha (Example 8: 3.72 mg/cc HCQ rinse followed by 0.12% chlorhexidine rinse, 2 + 2 days) is “completely disappeared”. Also, the “time until totally free of pain” value in the assay with aphtha (Example 8: person, major aphtha approx. 1 cm, probable secondary infection, 3.72 mg/cc HCQ rinse followed by 0.12% chlorhexidine rinse, 3 times a day) is given as “Two”. In the assay on aphtha (canker sores) (Example 1: HCQ solution 3.7 mg/ml, rinsed about a week), the “follow-up without additional aphthous lesions” value is reported as 8 weeks. The “state of the aphtha 24 hours after start of treatment” value in the assay with aphtha (canker sores) (Example 1: minor aphtha, HCQ solution 3.7 mg/ml, three times a day) is “almost disappeared”. The “time after start of treatment until free of any pain” value in the assay on aphtha (canker sores) (Example 1: person, minor aphtha, rinses 10 ml HCQ solution 3.7 mg/ml, three times a day, 3 to 5 min) was “Twenty-four”. In the assay on aphtha (canker sores) (setting [2]), the “new minor aphtha (3 mm) on the lip after 4 more days of rinsing” value was “diminished significantly in its size”, the “new minor aphtha (3 mm) on the tongue after 4 more days of rinsing” value was “disappeared” and the “pain from the two new minor aphthous lesions” value is given as “did not cause any pain whatsoever”. For the same compound, in the assay with aphtha (canker sores) (Example 2: HCQ solution 3.7 mg/ml, rinsed 20 days in total), the “follow up with no new aphthous lesions” value is on record as 3 months. In the assay on aphtha (canker sores) (setting [3]), the “aphtha of the tongue (about 8 mm), 5 days later” value was “completely disappeared” and the “major aphtha of the lower lip (12 mm), 5 days later” value is “decreased in size to about half its original size”. The “major aphtha on the lower lip mucosa after 6 additional days” value in the assay with aphtha (canker sores) (Example 2: HCQ solution 3.7 mg/ml, 5 + 6 days, left a pronounced scar) was “disappeared completely”. In the assay with aphtha (canker sores) (Example 2: person, two major aphthae, 10 ml HCQ solution 3.7 mg/ml, three times a day, 3 to 5 min), the “time after start of rinses until pain completely disappeared” value was found to be 24 h. For the same compound, in the assay with aphtha (canker sores) (setting [4]), the “diameter of aphtha on the lower lip after 5 days (initially about 3 mm)” value is listed as “about 1 mm” and the “time from start of rinsing until free of any pain” value amounted to 24 h. In the assay on aphtha (canker sores) (Example 3: HCQ solution 2.5 then 3.7 mg/ml), the “follow up after cessation of rinses without new aphthae” value was found to be 5 weeks. Besides, the “time until aphtha on the lower lip disappeared completely after continuing with 3.7 mg/ml” value in the assay with aphtha (canker sores) (Example 3: after 5 days at 2.5 mg/ml, HCQ solution 3.7 mg/ml three times a day) is listed as at most 2 days. In addition, the “lesion on upper lip (about 6 mm) after 5 days” value in the assay with aphtha (canker sores) (Example 3: child, 10 ml HCQ solution 2.5 mg/ml, three times a day, 3 to 5 min) is “almost disappeared”. For the same compound, in the assay with aphtha (canker sores) (Example 4: HCQ solution 1.2 mg/ml), the aphthae-free period is listed as 7 months. The “state of the aphtha after 7 days of rinsing” value in the assay with aphtha (canker sores) (Example 4: HCQ solution 1.2 mg/ml, three times a day) is listed as “almost disappeared”. Also, the “time from start of rinses until free of any pain” value in the assay with aphtha (canker sores) (Example 4: person, diabetes mellitus, major aphthous lesion about 8 mm, 10 ml HCQ solution 1.2 mg/ml, three times a day) worked out at 24 h. For the same compound, the “follow up with no new aphthae” value in the assay with aphtha (canker sores) (Example 5: HCQ solution 1.2 mg/ml) is on record as 4 months. The “time until aphtha completely disappeared” value with aphtha (canker sores) (Example 5: HCQ solution 1.2 mg/ml, three times a day) was “three”. In addition, the “time of rinses until no pain” value with aphtha (canker sores) (Example 5: person, minor aphtha 4-5 mm, 10 ml HCQ solution 1.2 mg/ml, three times a day) is on record as “one”.

For `C=C[C@H]1C[N@@]2CC[C@H]1C[C@@H]2[C@@H](O)c1ccnc2ccc(OC)cc12` [quinidine sulfate], the “activity in treating oral mucositis” value in assay [1] (general statement) is “active”.

For the compound `C=C[C@H]1C[N@@]2CC[C@H]1C[C@H]2[C@H](O)c1ccnc2ccc(OC)cc12` [quinine sulfate], the “time until pain decreased significantly” value in the assay with aphtha (Example 9: person, minor aphtha, 10 ml quinine sulfate solution 3 mg/cc followed by 0.12% chlorhexidine rinse, 3 times a day) was at most 24 h. Moreover, in the assay on aphtha (Example 9: quinine sulfate solution 3 mg/cc followed by 0.12% chlorhexidine rinse, 3 times a day), the “time until all the inconvenience disappeared” value was at most 48 h.

Regarding `C=C[C@H]1C[N@@]2CC[C@H]1C[C@H]2[C@H](O)c1ccnc2ccc(OC)cc12` [quinine], in the assay with erosive lichen planus (setting [5]), the “erosive/ulcerative lesions after about 4 weeks” value is on record as “marked healing” and the “symptoms of the lesions after about 4 weeks” value was “completely asymptomatic”. In the assay with erosive lichen planus (Example 7: maintained by quinine solution), the “follow-up period with stable asymptomatic condition of lichen planus” value is reported as “about 1 year”. The “pain and masticatory function after 3 days” value in the assay on erosive lichen planus (Example 7: person, rinse (5 to 10 min) and swallow 10-20 ml of 0.085 mg/ml quinine solution, 5 to 7 times a day) is “significant amelioration”. Further, in the assay on aphtha (canker sores) (Example 6: 0.085 mg/ml quinine solution, 5 to 7 times a day), the “time until ulcer healed completely” value is given as at most 4 days. The “time until pain and inconvenience disappeared” value in the assay on aphtha (canker sores) (Example 6: person, minor aphtha about 3 mm, 10 ml 0.085 mg/ml quinine solution, 3 to 5 minutes, 5 to 7 times a day) was 2 days. Further, the “follow-up with no further recurrences” value in the assay with aphtha (canker sores) (Example 10: 0.085 mg/ml quinine solution) is given as “about 6 months”. Moreover, the “time until disappearance of the aphtha” value in the assay on aphtha (canker sores) (Example 10: 0.085 mg/ml quinine solution, rinse and swallow) was “about 4 days”. For the same compound, the “time until free of any symptoms” value in the assay with aphtha (canker sores) (Example 10: person, minor aphtha about 4 mm, 10 ml 0.085 mg/ml quinine solution, about 5 times per day, rinse 3 to 5 min and swallow) is at most 24 h. The “outcome in patients with major aphtha accompanied by a secondary infection” value in assay [1] (mouth rinsing with 0.083 mg/ml of quinine, and optionally chlorhexidine, several minutes, several times a day) is “relief of pains and healing”.

The values are drawn from patent publication US20070155786A1, “Methods for treating oral aphthous stomatitis and oral mucositis” (priority 2004, published 2007).
